According to US20130123255A1, “COMBINATION OF A PI3K INHIBITOR AND A MEK INHIBITOR” (CHUGAI SEIYAKU KABUSHIKI KAISHA, priority 2011, published 2013):

Experiments:
[1] = system: ERK phosphorylation in HCT116 cells; assay: Western blot of MAPK pathway, ERK phosphorylation; type: cell-based
Description: (§1) To investigate the combination effect on PI3K and MAPK pathway, compound of formula (I) and compound of formula (II) were tested on HCT116 cells.
(§2) 5×10^5 of cells were treated with compound of formula (I) alone, compound of formula (II) alone or the combination thereof at 1 μM for 24 hours in 6-well plate. After that, HCT116 cells were lysed with Cell Lysis Buffer (Cell Signaling Technology) containing protease and phosphatase inhibitors. The lysates were denatured and then subjected to SDS-PAGE. After electroblotting, the polyvinylidene fluoride membranes were blocked with Blocking One (Nacalai Tesque) for 1 h. Membranes were then incubated with primary antibodies purchased from Cell Signaling Technology Inc., and anti-actin antibody purchased from Santa Cruz Biotechnology over night at 4° C., followed by washing three times with 0.1% Tween 20 (Nacalai Tesque) in TBS buffer (TBS-T buffer; TaKaRa Bio). This was followed by 0.5 to 1 h incubation at room temperature with secondary antibodies (Cell Signaling Technology). Then, membranes were washed four times with TBS-T buffer, followed by incubation with ECL or ECL-plus solutions (GE Healthcare). Signals were detected using LAS-4000 (Fujifilm) according to the manufacturer's instructions.

[2] = system: Akt phosphorylation in HCT116 cells; assay: Western blot of PI3K pathway, Akt phosphorylation; type: cell-based; details: 1 μM, 24 hours, FIG. 3
Description: as §1, §2

Row | Structure (SMILES) | phosphorylation of ERK [1] | phosphorylation of Akt [2]
1 | O=C(NOCCO)c1cc(CN2OCCCC2=O)c(F)c(F)c1Nc1ccc(I)cc1F [compound of formula (I), 3,4-difluoro-2-(2-fluoro-4-iodo-phenylamino)-N-(2-hydroxy-ethoxy)-5-(3-oxo-[1,2]oxazinan-2-ylmethyl)-benzamide] | suppressed | 
2 | CS(=O)(=O)N1CCc2c(-c3cnc(N)nc3)nc(N3CCOCC3)nc21 [compound of formula (II), 5-(7-methanesulfonyl-2-morpholin-4-yl-6,7-dihydro-5H-pyrrolo[2,3-d]pyrimidin-4-yl)-pyrimidin-2-ylamine] |  | suppressed
